Earlier results, collected in patent US11523999B2, “Compositions comprising a fatty aged oil mixture and a free fatty acid, and methods and uses thereof” (Pronova Biopharma Norge AS, priority 2009, dated 2022).
Values joined by “and” are separate entries in the source; they are usually repeats but may differ in a detail not shown here. Equal values may be shown once.

conditions: Other surfactants, Table 7

Row | HBL Value | Compound
1 | 3.3 and 3.8 | CCCCCCCCCCCCCCCCCC(=O)OCC(O)CO (stereo not drawn) [Glyceryl monostearate]
2 | 6.1 | CCCCCCCCCCCC(=O)OCCOCCO [Diethylene glycol monolaurate]
3 | 1.5 | CCCCCCCCCCCCCCCCCC(=O)OCCOC(=O)CCCCCCCCCCCCCCCCC [Ethylene glycol distearate]
4 | 3.4 | Propylene glycol monostearate
5 | 40 | CCCCCCCCCCCCOS(=O)(=O)[O-].[Na+] [Sodium lauryl sulphate]

Row | Compound | HBL Value
6 | CCCCCCCCCCCCCCCC[N+](C)(C)C.[Br-] [Cetrimonium bromide] | 23.3

same assay, conditions: Span surfactants, Table 3

Row | HLB Value | Compound
7 | 4.7 | sorbitan monostearate [Span ® 60]
8 | 4.3 | sorbitan monooleate [Span ® 80]
9 | 6.7 | sorbitan monopalmitate [Span ® 40]
